# In the supplement of paper PMC11579375:
# Experiments:
# Test in all cases: area under the viability dose-response curve (AUC) (AUC (arbitrary units, max 500 = no viability loss)); higher = less sensitive (higher viability)
# Settings in all cases: exposure time: 120 h; concentration range: 0.1 nM - 10 µM, 6 doses
# 17F1 = tested on: 17F1 (fetal-I hepatoblastoma organoid with intermediate liver markers)
# Experimental: (§1)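 Patient-derived hepatoblastoma tumor organoids (about 50 organoids per well, 384-well plates, medium with 5% BME) were treated with the PMC pediatric cancer drug library. Each drug was tested in duplicate at 6 concentrations (0.1 nM to 10 µM, 10-fold steps).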
# 3E = tested on: 3E (embryonal-type hepatoblastoma organoid)
# Experimental: as §1
# 13E = tested on: 13E (embryonal-type hepatoblastoma organoid)
# Experimental: as §1
# 135F2 = tested on: 135F2 (fetal-II hepatoblastoma organoid with high liver markers)
# Experimental: as §1
# 13F2 = tested on: 13F2 (fetal-II hepatoblastoma organoid with high liver markers)
# Experimental: as §1
# 8F1 = tested on: 8F1 (fetal-I hepatoblastoma organoid with intermediate liver markers)
# Experimental: as §1
# 27F1 = tested on: 27F1 (fetal-I hepatoblastoma organoid with intermediate liver markers)
# Experimental: as §1
# 10F2 = tested on: 10F2 (fetal-II hepatoblastoma organoid with high liver markers)
# Experimental: as §1
# 96F1 = tested on: 96F1 (fetal-I hepatoblastoma organoid with intermediate liver markers)
# Experimental: as §1
# 22E = tested on: 22E (embryonal-type hepatoblastoma organoid)
# Experimental: as §1
# 17E = tested on: 17E (embryonal-type hepatoblastoma organoid)
# Experimental: as §1
Compound,area under the viability dose-response curve (17F1),area under the viability dose-response curve (3E),area under the viability dose-response curve (13E),area under the viability dose-response curve (135F2),area under the viability dose-response curve (13F2),area under the viability dose-response curve (8F1),area under the viability dose-response curve (27F1),area under the viability dose-response curve (10F2),area under the viability dose-response curve (96F1),area under the viability dose-response curve (22E),area under the viability dose-response curve (17E)
CN(C)C/C=C/C(=O)Nc1ccc(C(=O)Nc2cccc(Nc3ncc(Cl)c(-c4c[nH]c5ccccc45)n3)c2)cc1 [THZ1],371,223,291,314,276,410,435,256,343,241,281
CC[C@@]1(O)C(=O)OCc2c1cc1n(c2=O)Cc2cc3c(CN(C)C)c(O)ccc3nc2-1 [Topotecan],319,257,328,291,239,372,348,311,284,416,269
CC1(COc2ccc3c(c2)ncn3-c2ccc3cccc(N4CCC(N)CC4)c3n2)COC1 [Crenolanib],479,466,> 500,448,446,> 500,> 500,480,467,> 500,487
O=C(c1ccc(F)c(F)c1Nc1ccc(I)cc1F)N1CC(O)([C@@H]2CCCCN2)C1 [Cobimetinib],438,372,429,300,266,455,381,220,430,448,362
CS(=O)(=O)CCNCc1ccc(-c2ccc3ncnc(Nc4ccc(OCc5cccc(F)c5)c(Cl)c4)c3c2)o1 [Lapatinib],459,464,483,474,388,495,416,336,445,463,482
CN(C)C/C=C/C(=O)Nc1ccc(C(=O)N2CCC[C@@H](Nc3ncc(Cl)c(-c4c[nH]c5ccccc45)n3)C2)cc1 [THZ531],332,263,360,367,376,344,336,332,340,320,374
C[C@H](NC(=O)CCC(F)(F)F)C(=O)N[C@@H]1C(=O)N(CCO)c2ncccc2-c2ccccc21 [Crenigacestat],> 500,458,482,479,418,498,484,389,480,474,482
COc1cc2nccc(Oc3ccc(NC(=O)NC4CC4)c(Cl)c3)c2cc1C(N)=O [Lenvatinib],> 500,475,468,469,445,461,445,419,474,472,434
C[C@@H]1COC(Nc2ccc3ncnc(Nc4ccc(OCc5nccs5)c(Cl)c4)c3c2)=N1 [Varlitinib],447,485,476,465,372,476,433,382,430,481,480
CC1=C(/C=C/C(C)=C/C=C/C(C)=C/C(=O)Nc2ccc(O)cc2)C(C)(C)CCC1 [Fenretinide],443,386,446,430,469,470,484,418,430,418,426
Cc1c(-c2c(-c3ccc(F)o3)sc3ncnc(O[C@H](Cc4ccccc4OCc4ccnn4CC(F)(F)F)C(=O)O)c23)ccc(OCCN2CCN(C)CC2)c1Cl,> 500,234,367,351,239,485,428,185,> 500,388,370
CCC(CC)(NC(=O)C(C)C)C(=O)N[C@@H](CCCN=C(N)N)C(=O)NC1(C(=O)NC(c2ccc(F)cc2)c2ccc(F)cc2)CCCC1 [MM102],486,> 500,> 500,497,482,> 500,493,445,485,464,> 500
N#CC[C@H](C1CCCC1)n1cc(-c2ncnc3[nH]ccc23)cn1 [Ruxolitinib],478,462,> 500,491,487,> 500,> 500,492,490,440,487
Cn1ncnc1[C@H]1c2n[nH]c(=O)c3cc(F)cc(c23)N[C@@H]1c1ccc(F)cc1 [Talazoparib],486,341,399,392,328,438,403,367,439,444,383
CC(C)(O)CNc1nc(Nc2ccnc(C(F)(F)F)c2)nc(-c2cccc(C(F)(F)F)n2)n1 [Enasidenib],> 500,> 500,> 500,> 500,> 500,> 500,> 500,> 500,> 500,> 500,> 500
CN[C@@H](C)C(=O)N[C@H]1CN(C(=O)CC(C)C)CC[C@H]2CC[C@@H](C(=O)NC(c3ccccc3)c3ccccc3)N2C1=O [Xevinapant],489,351,484,> 500,498,496,> 500,445,> 500,301,454
NS(=O)(=O)OC[C@@H]1C[C@@H](n2ccc3c(N[C@H]4CCc5ccccc54)ncnc32)C[C@@H]1O [Pevonedistat],400,448,451,342,329,445,333,425,381,470,383

Compound,area under the viability dose-response curve (17F1),area under the viability dose-response curve (3E),area under the viability dose-response curve (13E),area under the viability dose-response curve (135F2),area under the viability dose-response curve (13F2),area under the viability dose-response curve (8F1),area under the viability dose-response curve (27F1),area under the viability dose-response curve (10F2),area under the viability dose-response curve (96F1),area under the viability dose-response curve (22E),area under the viability dose-response curve (17E)
CO[C@@H]1[C@H](N(C)C(=O)c2ccccc2)C[C@H]2O[C@]1(C)n1c3ccccc3c3c4c(c5c6ccccc6n2c5c31)C(=O)NC4 [Midostaurin],442,338,427,365,335,454,> 500,372,431,417,364
Oc1nc(-c2ccc(C(F)(F)F)cc2)nc2c1CSCC2 [XAV-939],> 500,496,486,486,477,490,> 500,456,> 500,491,> 500
FC(F)(F)c1ccc(/C=C/c2nc(COc3ccc(CCCCn4ccnn4)cc3)co2)cc1 [Mubritinib],245,429,339,334,264,263,335,438,269,449,419
COc1cc(CCc2cc(NC(=O)c3ccc(N4CC(C)NC(C)C4)cc3)n[nH]2)cc(OC)c1 (centres undefined) [AZD4547],480,308,375,471,376,> 500,> 500,476,475,370,338
Cc1[nH]c2ccccc2c1CCNCc1ccc(/C=C/C(=O)NO)cc1 [Panobinostat],271,210,294,248,220,325,296,166,290,319,218
C[C@@H]1CN(CC(=O)Nc2ccc3c(c2)Cc2cccc(-c4cc(=O)cc(N5CCOCC5)o4)c2S3)C[C@H](C)O1,> 500,> 500,493,470,484,> 500,456,430,480,461,457
O=c1cc(CN2CCOCC2)occ1OCCCCCSc1ccnc2cc(C(F)(F)F)ccc12 [EHT 1864],477,371,481,475,456,468,490,375,488,490,454
Cc1sc2c(c1C)C(c1ccc(Cl)cc1)=N[C@@H](CC(N)=O)c1nnc(C)n1-2 [CPI-203],467,342,410,334,336,447,468,335,473,413,373
C[C@@H]1COCCN1c1cc(=O)n2c(n1)N(Cc1cncc(Cl)c1)[C@H](C(F)(F)F)CC2 [SAR405],> 500,479,497,490,467,489,454,> 500,> 500,474,496
Cc1cccc(-c2nn3c(c2-c2ccnc4ccc(C(N)=O)cc24)CCC3)n1 [Galunisertib],> 500,> 500,493,493,> 500,> 500,> 500,465,481,482,> 500
S=c1nc[nH]c2nc[nH]c12 [6-Mercaptopurine],451,> 500,449,402,443,465,469,478,420,460,429
C=CCNC1=C2C[C@@H](C)C[C@H](OC)[C@H](O)[C@@H](C)/C=C(\C)[C@H](OC(N)=O)[C@@H](OC)/C=C\C=C(/C)C(=O)NC(=CC1=O)C2=O [Tanespimycin],373,382,384,267,245,356,311,220,327,346,337
Cc1c2c(nn1C)CSCc1cc(n(C)n1)CSc1cc(c3ccccc3c1)OCCCc1c(C(=O)O)n(C)c3c-2c(Cl)ccc13 [AZD5991],482,310,403,379,277,484,473,190,> 500,400,370
Nc1ncccc1-c1nc2ccc(-c3ccccc3)nc2n1-c1ccc(C2(N)CCC2)cc1 [Miransertib],494,338,421,429,422,428,447,446,433,387,365
CNC(=O)c1cc(Oc2ccc(NC(=O)Nc3ccc(Cl)c(C(F)(F)F)c3)cc2)ccn1 [Sorafenib],448,448,454,431,440,453,458,443,459,452,437
CNCc1ccc(-c2[nH]c3cc(F)cc4c3c2CCNC4=O)cc1 [Rucaparib],489,490,484,452,458,476,> 500,446,> 500,475,489
N#CCNC(=O)c1ccc(-c2ccnc(Nc3ccc(N4CCOCC4)cc3)n2)cc1 [Momelotinib],489,462,471,462,443,479,496,442,465,489,444
